Key:
[1] = test system: epidermoid carcinoma A-431; assay: MTT cell viability assay, A-431; assay type: cell-based, human; conditions: A-431, MTT, 72 h, median (95% Confidence Intervals)
Procedure: (§1) The following human cell lines were used in this study: (i) epidermoid carcinoma A-431 (ATCC® CRL-1555), (ii) lung carcinoma A549 (ATCC® CCL-185), (iii) colorectal carcinoma HCT116 (ATCC® CCL-247), (iv) HCT116p53^−/−, (v) glioblastoma U-87 MG (ATCC® HTB-14), (vi) glioblastoma U-251 MG (ECACC 09063001), (vii) breast adenocarcinoma MCF7 (ATCC® HTB-22), (viii) breast adenocarcinoma MDA-MB-231 (ECACC 92020424), (ix) papillomavirus-related cervical squamous cell carcinoma SKG-IIIa (RRID:CVCL_1704), (x) cervical adenocarcinoma HeLa (ATCC® CCL-2), (xi) bone osteosarcoma U-2 OS (ATCC® HTB-96), (xii) hepatocellular carcinoma HEPG2 (ATCC® HB-8065), (xiii) larynx squamous cell carcinoma BICR 18 (ECACC 06051601), (ix) kidney HEK 293T (ATCC® CRL-11268), (xv) normal lung fibroblasts MRC-5 (ATCC® CCL-171), (xvi) normal fibroblasts BJ (ATCC® CRL-2522). The HCT116p53^−/− cell line was a kind gift from professor Bert Vogelstein (John Hopkin’s University, Baltimore, MD, USA). The remaining cell lines were purchased from ATCC (Manassas, VA, USA) or Sigma-Aldrich by Merck (Darmstadt, Germany).
(§2) Cells were cultured in minimal or Dulbecco’s modified Eagle’s or Ham’s F10 medium supplemented with 10% fetal bovine serum (Gibco by Thermo Fisher Scientific, Waltham, MA, USA) and (for BICR 18) 0.4 μg/mL hydrocortizone (Sigma-Aldrich by Merck, Darmstadt, Germany) under standard culture conditions (37 °C, 5% CO2) in a humidified incubator with an atmospheric oxygen.
(§3) The viability of cells was assayed by measuring the conversion of MTT (3-(4,5-dimethylthiazol-2-yl)-2,5-diphenyltetrazolium bromide) to the formazan (the rate of this reaction is proportional to the number of surviving cells). Cells were seeded in a 96-well plate at a density of 2500–3500 cells per well, 24 h before treatment. […] MTT stock solution (Sigma-Aldrich) was added at the final concentration 0.5 mg/mL. After 4 h of incubation at 37 °C, water-insoluble formazan was dissolved in a lysis buffer containing 20% SDS, 50% DMF, 2.5% hydrochloric acid and 2.5% acetic acid. Optical densities were measured at 570 nm using a scanning multi-well spectrophotometer ([…] Detection Platform; Beckman Coulter, Brea, CA, USA). At least three independent experiments of viability were conducted.

lung carcinoma A549 = assay: MTT cell viability assay, A549; assay type: cell-based, human; conditions: 72 h, median (95% Confidence Intervals)
Procedure: as §1, §2, §3

[2] = test system: colorectal carcinoma HCT116; assay: MTT cell viability assay, HCT116; assay type: cell-based, human; conditions: median (95% Confidence Intervals)
Procedure: as §1, §2, §3

[3] = test system: colorectal carcinoma HCT116p53^−/−; assay: MTT cell viability assay, HCT116p53−/−; assay type: cell-based, human; conditions: 72 h, median (95% Confidence Intervals)
Procedure: as §1, §2, §3

glioblastoma U-87 MG = assay: MTT cell viability assay, U-87 MG; assay type: cell-based, human; conditions: 72 h, median (95% Confidence Intervals)
Procedure: as §1, §2, §3

[4] = test system: breast adenocarcinoma MCF7; assay: MTT cell viability assay, MCF7; assay type: cell-based, human; conditions: 72 h, median (95% Confidence Intervals)
Procedure: as §1, §2, §3

[5] = test system: cervical squamous cell carcinoma SKG-IIIa; assay: MTT cell viability assay, SKG-IIIa; assay type: cell-based, human; conditions: SKGIIIa, 72 h, median (95% Confidence Intervals)
Procedure: as §1, §2, §3

[6] = test system: cervical adenocarcinoma HeLa; assay: MTT cell viability assay, HeLa; assay type: cell-based, human; conditions: 72 h, median (95% Confidence Intervals)
Procedure: as §1, §2, §3

bone osteosarcoma U-2 OS = assay: MTT cell viability assay, U-2 OS; assay type: cell-based, human; conditions: 72 h, median (95% Confidence Intervals)
Procedure: as §1, §2, §3

[7] = test system: hepatocellular carcinoma HEPG2; assay: MTT cell viability assay, HEPG2; assay type: cell-based, human; conditions: 72 h, median (95% Confidence Intervals)
Procedure: as §1, §2, §3

[8] = test system: larynx squamous cell carcinoma BICR 18; assay: MTT cell viability assay, BICR 18; assay type: cell-based, human; conditions: BICR 18, MTT, 72 h, median (95% Confidence Intervals)
Procedure: as §1, §2, §3

kidney HEK 293T = assay: MTT cell viability assay, HEK 293T; assay type: cell-based, human; conditions: 72 h, median (95% Confidence Intervals)
Procedure: as §1, §2, §3

[9] = test system: normal lung fibroblasts MRC-5; assay: MTT cell viability assay, MRC-5; assay type: cell-based, human; conditions: MRC-5, MTT, 72 h, median (95% Confidence Intervals)
Procedure: as §1, §2, §3

normal fibroblasts BJ = assay: MTT cell viability assay, BJ; assay type: cell-based, human; conditions: 72 h, median (95% Confidence Intervals)
Procedure: as §1, §2, §3

[10] = target: T1, recombinant human PDE5A/PDE5 protein (Homo sapiens, UniProt O76074); assay: colorimetric PDE Activity Assay Kit (Abcam), PDE5 inhibition; assay type: biochemical
T1 construct: purchased Abcam
Procedure: A high concentration of cGMP substrate was used (200 μM) due to the moderate sensitivity of the aforementioned assay.
The inhibitory effect of the tested compounds was measured using colorimetric PDE Activity Assay Kit (Abcam, Cambridge, UK). This assay allows the quantification of 5′-nucleotide released in the reaction catalyzed by tested phosphodiesterase, PDE5, using the additional enzyme 5′-nucleotidase to cleave the mentioned product, and next, using modified Malachite Green assay, the phosphate is quantified. The assay was carried in a 96-well plate at a volume of 40 μL in an assay buffer, containing 40 ng recombinant human PDE5A/PDE5 protein (Abcam), 200 μM cGMP, 25 kU 5′-nucleotidase and serially diluted ligand to preserve 4% of DMSO. The reaction was initiated with the enzyme and kept going for 20 min at 37 °C. The reaction was stopped by adding 80 μL of Green Assay reagent. After incubation at room temperature for 30 min (to develop color proportional to phosphate content), the absorbance at 620 nm was measured with The SpectraMax iD3 Multi-Mode Microplate Reader (Molecular Devices, San Jose, CA, USA). Inhibitors concentrations varied in the range of 2 pM–200 μM. Each experiment was repeated 4–5 times and IC50 values were calculated by global fitting of the sigmoidal dose response equation implemented in Origin 9.0 package (www.originlab.com). For each experiment, control reaction with no enzyme added and without inhibitor was also performed.

glioblastoma U-251 MG = assay: MTT cell viability assay, U-251 MG; assay type: cell-based, human; conditions: 72 h, median (95% Confidence Intervals)
Procedure: as §1, with “The remaining cell lines were purchased from ATCC (Manassas, VA, USA) or Sigma-Aldrich by Merck (Darmstadt, Germany).” left out
The viability of cells was assayed by measuring the conversion of MTT (3-(4,5-dimethylthiazol-2-yl)-2,5-diphenyltetrazolium bromide) to the formazan (the rate of this reaction is proportional to the number of surviving cells). […] Optical densities were measured at 570 nm using a scanning multi-well spectrophotometer ([…] Detection Platform; Beckman Coulter, Brea, CA, USA). […]

[11] = test system: breast adenocarcinoma MDA-MB-231; assay: MTT cell viability assay, MDA-MB-231; assay type: cell-based, human; conditions: MDA-MB-231, MTT, 72 h, median (95% Confidence Intervals)
Procedure: as §1, §2, §3

[12] = test system: blood platelet aggregation; assay: platelet aggregation in platelet-rich plasma (light transmittance aggregometry, collagen + DEA-NO); assay type: cell-based; conditions: Homo sapiens, 10 μM compound, 500 nM DEA-NO, 2 μg/mL collagen, vs DMSO + DEA-NO
Text: Nitric oxide is one of the main physiological antiplatelet molecules secreted by vascular endothelium. It stimulates intraplatelet production of cGMP. This secondary messenger is then decomposed in platelets by the activity of two out of three PDE isoforms which are detected in platelets, namely by PDE2 and PDE5, while the other isoform (PDE3) is mostly involved in cAMP hydrolysis. Inhibitors of these phosphodiesterases increase intraplatelet concentration of cGMP and thus potentiate the antiplatelet effect of NO [52]. […]
Multiplate test cells for turbidimetric aggregometry and collagen were purchased from Chronolog Co (Havertown, PA, USA). […] DEA-NO was added to the final concentration of 500 nM, and shortly after, collagen was added to each sample to a final concentration of 2 μg/mL to induce platelet aggregation, which was thereafter monitored for 10 min using an optical aggregometer Chrono-Log 490-2D (Chrono-Log, Havertown, PA, USA). The total area under the aggregation curve (AUC) and the maximal value of platelet aggregation (Amax,U) was recorded. […]
Shortly prior to measurement, 500 nM DEA-NO was added, followed by 2 μg/mL collagen. Percentage of inhibition of platelet response was calculated in comparison to a sample treated with DMSO and DEA-NO on the basis of maximal value of platelet aggregation. […]

PDE5 = conditions: read-out: earlier reported IC50 values for PDE5; cited from earlier work

| SMILES | IC50 ([1]; Homo sapiens) [µM] | IC50 (lung carcinoma A549; Homo sapiens) [µM] | IC50 ([2]; Homo sapiens, HCT-116, 72 h) [µM] | IC50 ([3]; Homo sapiens) [µM] | IC50 (glioblastoma U-87 MG; Homo sapiens) [µM] | IC50 ([4]; Homo sapiens) [µM] | IC50 ([5]; Homo sapiens) [µM] | IC50 ([6]; Homo sapiens) [µM] | IC50 (bone osteosarcoma U-2 OS; Homo sapiens, U2OS) [µM] | IC50 ([7]; Homo sapiens) [µM] | IC50 ([8]; Homo sapiens) [µM] | IC50 (kidney HEK 293T; Homo sapiens) [µM] | IC50 ([9]; Homo sapiens, MRC5) [µM] | IC50 (normal fibroblasts BJ; Homo sapiens, Fibroblast) [µM] | other results |
| --- | --- | --- | --- | --- | --- | --- | --- | --- | --- | --- | --- | --- | --- | --- | --- |
| CN1CC(=O)N(Cc2cc3c(cc2Br)OCO3)[C@H](Cc2c[nH]c3ccccc23)C1=O [Compound 7a, (R)-3-((1H-indol-3-yl)methyl)-4-((6-bromobenzo[d][1,3]dioxol-5-yl)methyl)-1-methylpiperazine-2,5-dione] | 63.6 | 128 | 53 | 35.9 | 110 | 28.9 | 75.9 | 79.2 | 95.4 | 103 | 137 | 12.3 | 116 | 117 | IC50 ([10]; 200 μM cGMP, 40 ng enzyme, 20 min at 37 °C, 4% DMSO, read-out: IC50 against human PDE5): 22 ± 12 µM; times less effective than tadalafil as PDE5 inhibitor ([10]; compared with tadalafil, human PDE5): over 300; Ki ([10]; read-out: Ki against human PDE5): 0.22 ± 0.17 µM |
| N.N.[Cl][Pt][Cl] [Cisplatin, cisplatin, reference compound] | – | – | – | – | – | – | – | – | – | – | – | – | – | – | IC50 [1]: 1.51 µM; IC50 (lung carcinoma A549): 27.2 µM; IC50 ([2]; 72 h): 7.44 µM; IC50 [3]: 14.1 µM; IC50 (glioblastoma U-87 MG): 4.96 µM; IC50 (glioblastoma U-251 MG): 2.61 µM; IC50 [4]: 11 µM; IC50 [11]: 22.3 µM; IC50 [5]: 4.84 µM; IC50 [6]: 13.5 µM; IC50 (bone osteosarcoma U-2 OS): 7.55 µM; IC50 [7]: 7.8 µM; IC50 [8]: 1.69 µM; IC50 (kidney HEK 293T): 6.25 µM; IC50 [9]: 3.92 µM; IC50 (normal fibroblasts BJ): 5.58 µM |
| CN1CC(=O)N2[C@H](c3ccc4c(c3)OCO4)c3[nH]c4ccccc4c3C[C@@H]2C1=O [Tadalafil, reference compound] | 20.4 | 51.5 | 27.2 | 19.8 | 40.7 | 55.3 | 35.1 | 42.3 | 35.1 | 46.6 | 52.5 | 31 | 28.7 | 40.5 | IC50 (glioblastoma U-251 MG; Homo sapiens): 44.1 µM; IC50 ([11]; Homo sapiens): 87.6 µM; inhibition at 10 µM [12]: ~50%; IC50 (PDE5): […] |

Source: PMC7913621 (Molecules, 2021)
